Read-outs that look alike come from different tables or passages of the source.
Legend:
[1] = molecular target: WRN helicase (Homo sapiens (Human), UniProt Q14191); assay: In vitro enzymatic activity assay on WRN helicase (DNA dependent ATPase assay, ADP-Glo); assay type: biochemical; details: geometric means of at least 2 determinations; read-out: WRN ATPase Activity (IC50)
Outline: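 DNA-dependent ATPase activity was measured by ADP-Glo luminescent ADP detection after a 30-min room-temperature reaction. The reaction contained 10 nM WRN (residues N517-P1238), 0.2 nM FLAP26 and 300 µM ATP at pH 7.5 with 2 mM MgCl2. Compounds were tested as 10-point half-log series in duplicate; IC50 values are geometric means from at least two independent experiments.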

[2] = system: SW48 cells; assay: Proliferation assay SW48 (CellTiterGlo, 96 hours)
[3] = system: DLD1-WRN-KO cells; assay: Proliferation assay DLD1-WRN-KO (CellTiterGlo, 96 hours; off-target effects); details: read-out: Proliferation Assay DLD1-WRN-KO (GI50)
[4] = Homo sapiens, SW48, read-out: Proliferation Assay SW48 (GI50)
[5] = read-out: Proliferation Assay SW48 (GI50), SW48 cell line, geometric means of at least 2 determinations
[6] = DLD1-WRN-KO cell line, geometric means of at least 2 determinations

Sequence of WRN helicase (Q14191 517-1238): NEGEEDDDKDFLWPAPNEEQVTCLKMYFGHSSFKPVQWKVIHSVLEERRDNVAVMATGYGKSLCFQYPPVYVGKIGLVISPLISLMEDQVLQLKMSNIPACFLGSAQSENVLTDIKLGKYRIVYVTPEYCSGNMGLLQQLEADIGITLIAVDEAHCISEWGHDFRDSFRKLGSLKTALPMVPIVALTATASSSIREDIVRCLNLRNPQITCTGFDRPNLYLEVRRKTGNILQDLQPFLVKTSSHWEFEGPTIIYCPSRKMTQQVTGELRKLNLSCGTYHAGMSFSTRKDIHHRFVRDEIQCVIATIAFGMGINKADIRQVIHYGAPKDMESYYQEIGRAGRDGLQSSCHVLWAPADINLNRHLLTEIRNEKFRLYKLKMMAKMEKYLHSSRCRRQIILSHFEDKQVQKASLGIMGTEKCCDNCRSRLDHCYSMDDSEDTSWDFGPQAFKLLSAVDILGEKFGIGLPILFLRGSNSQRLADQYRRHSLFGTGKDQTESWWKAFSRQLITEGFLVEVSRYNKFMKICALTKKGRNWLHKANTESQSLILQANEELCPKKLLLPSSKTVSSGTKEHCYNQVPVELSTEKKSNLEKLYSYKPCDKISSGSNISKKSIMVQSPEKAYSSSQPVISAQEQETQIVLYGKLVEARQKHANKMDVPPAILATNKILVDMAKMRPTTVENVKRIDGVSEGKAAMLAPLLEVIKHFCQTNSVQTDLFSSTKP

IC50 [1]	GI50 [2, 4]	GI50 ([3]; Homo sapiens)	GI50 [2, 5]	GI50 [3, 6]	SMILES
120 nM	140 nM	> 10000 nM			CCc1c(N2CCN(C(=O)c3ncnc(C)c3O)CC2)c(=O)n2nc(C3=CCOCC3)nc2n1CC(=O)Nc1cc(F)c(C(F)F)cc1C [Example 53, N-(4-(difluoromethyl)-5-fluoro-2-methylphenyl)-2-(2-(3,6-dihydro-2H-pyran-4-yl)-5-ethyl-6-(4-(5-hydroxy-6-methylpyrimidine-4-carbonyl)piperazin-1-yl)-7-oxo-[1,2,4]triazolo[1,5-a]pyrimidin-4(7H)-yl)acetamide]
40 nM	140 nM	> 10000 nM			CCc1c(N2CCN(C(=O)c3nccc(OC(F)(F)F)c3O)CC2)c(=O)n2nc(C3=CCOCC3)nc2n1CC(=O)Nc1ccc(C(F)(F)F)cc1Cl [Example 98, N-(2-chloro-4-(trifluoromethyl)phenyl)-2-(2-(3,6-dihydro-2H-pyran-4-yl)-5-ethyl-6-(4-(3-hydroxy-4-(trifluoromethoxy)picolinoyl)piperazin-1-yl)-7-oxo-[1,2,4]triazolo[1,5-a]pyrimidin-4(7H)-yl)acetamide]
70 nM			70 nM	> 10000 nM	CCc1c(N2CCN(C(=O)c3ncccc3O)CC2)c(=O)n2nc(C3=CC[C@H](OC)CC3)nc2n1CC(=O)Nc1ccc(C(F)(F)F)cc1C (single isomer, unassigned) [Example 80a, ((R)-2-(5-ethyl-6-(4-(3-hydroxypicolinoyl)piperazin-1-yl)-2-(4-methoxycyclohex-1-en-1-yl)-7-oxo-[1,2,4]triazolo[1,5-a]pyrimidin-4(7H)-yl)-N-(2-methyl-4-(trifluoromethyl)phenyl)acetamide) or ((S)-2-(5-ethyl-6-(4-(3-hydroxypicolinoyl)piperazin-1-yl)-2-(4-methoxycyclohex-1-en-1-yl)-7-oxo-[1,2,4]triazolo[1,5-a]pyrimidin-4(7H)-yl)-N-(2-methyl-4-(trifluoromethyl)phenyl)acetamide)]
370 nM	760 nM	> 10000 nM			CCc1c(N2CCN(C(=O)c3ncnc(C)c3O)C[C@H]2C)c(=O)n2nc(C3=CCOCC3)nc2n1CC(=O)Nc1ccc(C(F)(F)F)cc1Cl [Example 88, (R)—N-(2-chloro-4-(trifluoromethyl)phenyl)-2-(2-(3,6-dihydro-2H-pyran-4-yl)-5-ethyl-6-(4-(5-hydroxy-6-methylpyrimidine-4-carbonyl)-2-methylpiperazin-1-yl)-7-oxo-[1,2,4]triazolo[1,5-a]pyrimidin-4(7H)-yl)acetamide]
150 nM	190 nM	> 10000 nM			CCc1c(N2CCN(C(=O)c3nccc(OC(F)(F)F)c3O)CC2)c(=O)n2nc(C3=CCOCC3)nc2n1CC(=O)Nc1ccc(C(F)(F)F)cc1C [Example 67, 2-(2-(3,6-dihydro-2H-pyran-4-yl)-5-ethyl-6-(4-(3-hydroxy-4-(trifluoromethoxy)picolinoyl)piperazin-1-yl)-7-oxo-[1,2,4]triazolo[1,5-a]pyrimidin-4(7H)-yl)-N-(2-methyl-4-(trifluoromethyl)phenyl)acetamide]
200 nM	1130 nM	> 10000 nM			Cc1cc(Cl)ccc1NC(=O)Cn1c(C)c(N2CCN(C(=O)c3ncccc3O)CC2)c(=O)n2nc(C3=CCOCC3)nc12 [Example 105, N-(4-chloro-2-methylphenyl)-2-(2-(3,6-dihydro-2H-pyran-4-yl)-6-(4-(3-hydroxypicolinoyl)piperazin-1-yl)-5-methyl-7-oxo-[1,2,4]triazolo[1,5-a]pyrimidin-4(7H)-yl)acetamide]
80 nM	300 nM	> 10000 nM			CCc1c(N2CCN(C(=O)c3nccc(Cl)c3O)CC2)c(=O)n2nc(C3=COCCO3)nc2n1CC(=O)Nc1ccc(C(F)(F)F)cc1C [Example 78, 2-(6-(4-(4-chloro-3-hydroxypicolinoyl)piperazin-1-yl)-2-(5,6-dihydro-1,4-dioxin-2-yl)-5-ethyl-7-oxo-[1,2,4]triazolo[1,5-a]pyrimidin-4(7H)-yl)-N-(2-methyl-4-(trifluoromethyl)phenyl)acetamide]
90 nM	80 nM	> 10000 nM			CCc1c(N2CCN(C(=O)c3ncnc(C)c3O)[C@H](C)C2)c(=O)n2nc(C3=CCOCC3)nc2n1CC(=O)Nc1ccc(C(F)(F)F)cc1Cl [Example 86, (R)—N-(2-chloro-4-(trifluoromethyl)phenyl)-2-(2-(3,6-dihydro-2H-pyran-4-yl)-5-ethyl-6-(4-(5-hydroxy-6-methylpyrimidine-4-carbonyl)-3-methylpiperazin-1-yl)-7-oxo-[1,2,4]triazolo[1,5-a]pyrimidin-4(7H)-yl)acetamide]
50 nM	80 nM	> 10000 nM			CCc1c(N2CCN(C(=O)c3ncccc3O)CC2)c(=O)n2nc(C3=CCOCC3)nc2n1CC(=O)Nc1ccc(C(F)(F)F)cc1F [Example 92, 2-(2-(3,6-dihydro-2H-pyran-4-yl)-5-ethyl-6-(4-(3-hydroxypicolinoyl)piperazin-1-yl)-7-oxo-[1,2,4]triazolo[1,5-a]pyrimidin-4(7H)-yl)-N-(2-fluoro-4-(trifluoromethyl)phenyl)acetamide]
110 nM			30 nM	> 10000 nM	CCc1c(N2CCN(C(=O)c3ncnc(C)c3O)[C@@H]3CC[C@@H]32)c(=O)n2nc(C3=CCOCC3)nc2n1CC(=O)Nc1ccc(C(F)(F)F)cc1Cl (single isomer, unassigned) [Example 131]
40 nM	50 nM	> 10000 nM			CCc1c(N2CCN(C(=O)c3ncccc3O)CC2)c(=O)n2nc(C3=CCOCC3)nc2n1CC(=O)Nc1ccc(C(F)(F)F)c(F)c1C [Example 38, 2-(2-(3,6-dihydro-2H-pyran-4-yl)-5-ethyl-6-(4-(3-hydroxypicolinoyl)piperazin-1-yl)-7-oxo-[1,2,4]triazolo[1,5-a]pyrimidin-4(7H)-yl)-N-(3-fluoro-2-methyl-4-(trifluoromethyl)phenyl)acetamide]
80 nM	190 nM	> 10000 nM			CCc1c(N2CCN(C(=O)c3ncccc3O)CC2)c(=O)n2nc(N3CCOCC3)nc2n1CC(=O)Nc1ccc(C(F)(F)F)cc1Cl [Example 2, N-(2-chloro-4-(trifluoromethyl)phenyl)-2-(5-ethyl-6-(4-(3-hydroxypicolinoyl)piperazin-1-yl)-2-morpholino-7-oxo-[1,2,4]triazolo[1,5-a]pyrimidin-4(7H)-yl)acetamide]
70 nM	110 nM	> 10000 nM			CCc1c(N2CCN(C(=O)c3nccc(Cl)c3O)CC2)c(=O)n2nc(N3CCC[C@H](F)C3)nc2n1CC(=O)Nc1ccc(C(F)(F)F)cc1C [Example 85, (S)-2-(6-(4-(4-chloro-3-hydroxypicolinoyl)piperazin-1-yl)-5-ethyl-2-(3-fluoropiperidin-1-yl)-7-oxo-[1,2,4]triazolo[1,5-a]pyrimidin-4(7H)-yl)-N-(2-methyl-4-(trifluoromethyl)phenyl)acetamide]
310 nM	100 nM	> 10000 nM			CCc1c(N2CCN(C(=O)c3ncccc3O)CC2)c(=O)n2nc(N3CCC(N(C)CC(F)F)CC3)nc2n1CC(=O)Nc1ccc(C(F)(F)F)nc1Cl [Example 20, N-(2-chloro-6-(trifluoromethyl)pyridin-3-yl)-2-(2-(4-((2,2-difluoroethyl)(methyl)amino)piperidin-1-yl)-5-ethyl-6-(4-(3-hydroxypicolinoyl)piperazin-1-yl)-7-oxo-[1,2,4]triazolo[1,5-a]pyrimidin-4(7H)-yl)acetamide]
80 nM			60 nM	> 10000 nM	CCc1c(N2CCN(C(=O)c3ncccc3O)CC2)c(=O)n2nc(C3=CC[C@H](OC)CC3)nc2n1CC(=O)Nc1ccc(C(F)(F)F)cc1C (single isomer, unassigned) [Example 80b, ((R)-2-(5-ethyl-6-(4-(3-hydroxypicolinoyl)piperazin-1-yl)-2-(4-methoxycyclohex-1-en-1-yl)-7-oxo-[1,2,4]triazolo[1,5-a]pyrimidin-4(7H)-yl)-N-(2-methyl-4-(trifluoromethyl)phenyl)acetamide) or ((S)-2-(5-ethyl-6-(4-(3-hydroxypicolinoyl)piperazin-1-yl)-2-(4-methoxycyclohex-1-en-1-yl)-7-oxo-[1,2,4]triazolo[1,5-a]pyrimidin-4(7H)-yl)-N-(2-methyl-4-(trifluoromethyl)phenyl)acetamide)]
40 nM	50 nM	> 10000 nM			CCc1c(N2CCN(C(=O)c3ncccc3O)CC2)c(=O)n2nc(C3=CCOCC3)nc2n1CC(=O)Nc1cc(F)c(C(F)(F)F)cc1C [Example 94, 2-(2-(3,6-dihydro-2H-pyran-4-yl)-5-ethyl-6-(4-(3-hydroxypicolinoyl)piperazin-1-yl)-7-oxo-[1,2,4]triazolo[1,5-a]pyrimidin-4(7H)-yl)-N-(5-fluoro-2-methyl-4-(trifluoromethyl)phenyl)acetamide]
260 nM	220 nM	> 10000 nM			CCc1c(N2CCN(C(=O)c3ncccc3O)CC2)c(=O)n2nc(C3=CCOCC3)nc2n1CC(=O)Nc1cnc(C(F)(F)F)cc1Cl [Example 33, N-(4-chloro-6-(trifluoromethyl)pyridin-3-yl)-2-(2-(3,6-dihydro-2H-pyran-4-yl)-5-ethyl-6-(4-(3-hydroxypicolinoyl)piperazin-1-yl)-7-oxo-[1,2,4]triazolo[1,5-a]pyrimidin-4(7H)-yl)acetamide]
890 nM			490 nM	> 10000 nM	CCc1c(N2CCN(C(=O)c3ncnc(C)c3O)[C@@H]3CC[C@@H]32)c(=O)n2nc(C3=CCOCC3)nc2n1CC(=O)Nc1ccc(C(F)(F)F)cc1Cl (single isomer, unassigned) [Example 132]
